In ChEMBL document CHEMBL4184162, “Hybrid DNA i-motif: Aminoethylprolyl-PNA (pC5) enhance the stability of DNA (dC5) i-motif structure” (Bioorg Med Chem Lett, 2017):
Active and inactive are the calls of the source. No cut-off for these calls is given here.

Legend:
[1] = Stabilization of i-motif DNA (unknown origin) assessed as change in melting temperature at 22.5 uM at pH 4.5 in presence of DC5 by UV-based analysis
[2] = Stabilization of i-motif DNA (unknown origin) assessed as change in melting temperature at 22.5 uM at pH 5 in presence of DC5 by UV-based analysis
[3] = Stabilization of i-motif DNA (unknown origin) assessed as change in melting temperature at 22.5 uM at pH 6 in presence of DC5 by UV-based analysis
[4] = Stabilization of i-motif DNA (unknown origin) at 22.5 uM at pH 4 to 6 by CD-spectra analysis
[5] = Stabilization of i-motif DNA (unknown origin) assessed as change in melting temperature at 22.5 uM at pH 5.5 in presence of DC5 by UV-based analysis

ΔTm [1]: 15.3 °C
ΔTm [2]: 17.9 °C
ΔTm [3]: 13.2 °C
Activity [4]: Active
ΔTm [5]: 8.85 °C
Compound: CC(=O)NCCN1C[C@@H](n2ccc(N)nc2=O)C[C@H]1C(=O)NCCN1C[C@@H](n2ccc(N)nc2=O)C[C@H]1C(=O)NCCN1C[C@@H](n2ccc(N)nc2=O)C[C@H]1C(=O)NCCN1C[C@@H](n2ccc(N)nc2=O)C[C@H]1C(=O)NCCN1C[C@@H](n2ccc(N)nc2=O)C[C@H]1C(=O)NCCC(N)=O
